Laboratory results as given in ChEMBL document CHEMBL4673360, “Discovery of novel HIV-1 integrase-LEDGF/p75 allosteric inhibitors based on a pyridine scaffold forming an intramolecular hydrogen bond” (Bioorg Med Chem Lett, 2021).

Key:
[1] = Cytotoxicity against human MT4 cells by MTT assay; assay type: cell-based
[2] = system: Human immunodeficiency virus 1; experiment: Antiviral activity against HIV-1 harbouring T174I mutant infected in human MT4 cells by MTT assay; assay type: functional, organism-based; conditions: Human immunodeficiency virus 1, MT4
[3] = system: Human immunodeficiency virus 1; experiment: Antiviral activity against wild type HIV-1 infected in human MT4 cells by MTT assay; assay type: functional, organism-based; conditions: Human immunodeficiency virus 1, MT4
[4] = AUC in rat at 0.5 mg/kg, iv; assay type: ADME, organism-based; set-up: dose 0.5 mg/kg; conditions: in vivo
[5] = Oral bioavailability in rat at 1 mg/kg; assay type: ADME, organism-based; conditions: in vivo
[6] = Total clearance in rat at 0.5 mg/kg, iv or 1 mg/kg, po; assay type: ADME, organism-based; conditions: in vivo
[7] = Metabolic stability in human liver microsomes assessed as parent compound remaining; assay type: ADME, Microsome
[8] = Metabolic stability in rat liver microsomes assessed as parent compound remaining; assay type: ADME, Microsome
[9] = Elimination half-life in rat at 0.5 mg/kg, iv or 1 mg/kg, po; assay type: ADME, organism-based; conditions: in vivo, read-out: LambdaZ (converted)

SMILES | CC50 [1] [µM] | EC50 [2] [µM] | EC50 [3] [µM] | also measured
Cc1ccc(-c2c(C)nc(NC(=O)NC3CCOCC3)c(C)c2C(OC(C)(C)C)C(=O)O)cc1C (stereo not given) | 29 | > 5 | 0.045 | 
Cc1ccc(-c2c(C)nc(C(=O)N(C)Cc3ccccc3)c(C)c2C(OC(C)(C)C)C(=O)O)cc1C (stereo not given) | 77 |  | 0.36 | 
Cc1nc(NC(=O)NC2CCCCC2)c(C)c(C(OC(C)(C)C)C(=O)O)c1-c1ccc(C(F)(F)F)cc1 (stereo not given) | 9.8 | 7.7 | 0.061 | 
COc1ccc(-c2c(C)nc(NC(=O)NC3CCCCC3)c(C)c2C(OC(C)(C)C)C(=O)O)cc1 (stereo not given) | 19 | 0.75 | 0.01 | 
COc1ccc(Nc2nc(C)c(-c3ccc(C)c(C)c3)c(C(OC(C)(C)C)C(=O)O)c2C)cc1 (stereo not given) | 28 |  | 0.22 | 
Cc1nc(NC(=O)NC2CCCCC2)c(C)c(C(OC(C)(C)C)C(=O)O)c1-c1ccc2c(c1)NCCO2 (stereo not given) | 30 |  | > 0.1 | 
Cc1ccc(-c2c(C)nc(Nc3nc4ccccc4n3C)c(C)c2C(OC(C)(C)C)C(=O)O)cc1C (stereo not given) | 14 |  | 0.19 | 
Cc1ccc(-c2c(C)nc(NC(=O)NC3CCCCCC3)c(C)c2C(OC(C)(C)C)C(=O)O)cc1C (stereo not given) | 7.7 | > 1 | 0.011 | 
Cc1ccc(-c2c(C)nc(C(=O)NCc3ccccc3)c(C)c2C(OC(C)(C)C)C(=O)O)cc1C (stereo not given) | 54 |  | 0.18 | 
Cc1nc(NC(=O)NC2CCCCC2)c(C)c(C(OC(C)(C)C)C(=O)O)c1-c1ccc2c(c1C)CCCO2 (stereo not given) | 11 | 0.27 | 0.0066 | 
Cc1ccc(-c2c(C)nc(NC(=O)NC3CCCCC3)c(C)c2C(OC(C)(C)C)C(=O)O)cc1C (stereo not given) | 7.9 | > 1 | 0.0066 | AUC [4]: 127 ng·h/mL; bioavailability [5]: 9.2%; clearance [6]: 12.5 mL/min/kg; Stabilty [7]: 65%; Stabilty [8]: 66%; half-life [9]: 1.6 h
Cc1nc(NC(=O)NC2CCCCC2)c(C)c(C(OC(C)(C)C)C(=O)O)c1-c1ccc2c(c1)CCCO2 (stereo not given) | 17 | 0.56 | 0.021 | 
Cc1nc2ccccc2c(-c2ccc3c4c(ccnc24)CCO3)c1[C@H](OC(C)(C)C)C(=O)O [BI-224436] | > 50 | > 5 | 0.022 | 
Cc1ccc(-c2c(C)nc(NC(=O)NC3CCCC3)c(C)c2C(OC(C)(C)C)C(=O)O)cc1C (stereo not given) | 8 | > 1 | 0.0083 | 
Cc1ccc(-c2c(C)nc(NC(=O)NCCc3ccccc3)c(C)c2C(OC(C)(C)C)C(=O)O)cc1C (stereo not given) | 11 | > 2 | 0.02 | 
Cc1ccc(-c2c(C)nc(NC(=O)NCc3ccccc3)c(C)c2C(OC(C)(C)C)C(=O)O)cc1C (stereo not given) | 17 | > 4 | 0.035 | 
Cc1ccc(-c2c(C)nc(NS(=O)(=O)c3cccc4ccccc34)c(C)c2C(OC(C)(C)C)C(=O)O)cc1C (stereo not given) | 16 | 1 | 0.032 | 
Cc1ccc(-c2c(C)nc(NC(=O)Nc3ccccc3)c(C)c2C(OC(C)(C)C)C(=O)O)cc1C (stereo not given) | 9.9 | > 1 | 0.011 | 
Cc1ccc(-c2c(C)nc(Nc3nc4ccccc4s3)c(C)c2C(OC(C)(C)C)C(=O)O)cc1C (stereo not given) | 6.6 |  | 0.35 | 
Cc1nc(NC(=O)NC2CCCCC2)c(C)c(C(OC(C)(C)C)C(=O)O)c1-c1ccc(Cl)cc1 (stereo not given) | 16 | 1.8 | 0.017 | 
